Legend:
LNCaP cells = test: Dose-response matrix, viability of LNCaP cells; format: cell-based; conditions: 3 days, antiandrogen in combination with phenprocoumon
Protocol: LNCaP (ATCC, Manassas, Va., USA, CRL-1740) and PC-3 (ATCC, CRL-1435) cells were grown in RPMI-1640 supplemented with 10% fetal bovine serum (Thermo Fisher Scientific) and 1% penicillin/streptomycin (Sigma-Aldrich). For steroid-deprived experiments, LNCaP cells were cultured in RPMI-1640 supplemented with 10% charcoal stripped fetal bovine serum (Thermo Fisher Scientific) and 1% penicillin/streptomycin (Sigma-Aldrich).
CLOUD drugs and combinations thereof were transferred on 384-well plates using an acoustic liquid handler (Echo, Labcyte, Sunnyvale, Calif., USA) and 5,000 cells/well were dispensed on top of the drugs using a dispenser (Thermo Fisher Scientific) for a total of 50 μl/well. Viability was measured after 72 hours using CellTiter-Glo (Promega, Fitchburg, Wis., USA) in a multilabel plate reader (EnVision, PekinElmer, Waltham, Mass., USA). Signal was then normalized to negative (DMSO) and positive (10 μM dasatinib) controls and set between 0 and 100. […] Drug combinations were analyzed according to the Bliss independence model (Bliss C I, Ann Appl Biol, 1939, 26:585-615). Briefly, the effect of the combination of drug A and drug B can be predicted to be C=A+B−A*B where A and B are the effects of the single drugs expressed as fractional inhibition between 0 and 1. A deviation of the experimental value from the Bliss prediction was calculated. […]

γ-carboxylated AR = test: γ-carboxylation in LNCaP cells (western blotting, immunoprecipitation with anti-γ-carboxyglutamyl antibody); format: cell-based; conditions: LNCaP lysates, increasing amounts of phenprocoumon
Protocol: Cells were lysed in RIPA buffer supplemented with a cocktail of protease inhibitors (Roche). Lysates were resolved by sodium dodecyl sulfate-polyacrylamide gel electrophoresis. AR (#5153) and GAPDH (#5174) antibodies were purchased from Cell Signaling Technology (Danvers, Mass., USA). αTUB antibody (ab7291) was purchased from Abcam (Cambridge, UK). Anti-γ-carboxyglutamyl antibody (REF 3570) was purchased from Sekisui Diagnostics (Lexington, Mass., USA).
(§1) Cells were lysed in IP buffer (50 mM Tris pH 8, 150 mM NaCl, 1% Igepal) supplemented with a cocktail of protease inhibitors (Roche). Immunoprecipitations were performed at 4° C. and using Dynabeads Protein G (Thermo Fisher Scientific). Lysates were precleared with beads for 30 minutes, incubated with antibodies overnight (1 μg antibody was used for 50 μg protein) and immunoprecipitated for 2 hours. After washing, immunoprecipitated proteins were eluted by either boiling in Laemmli buffer or using 50 mM glycine pH 2.8.

[1] = system: AR signaling canonical targets (KLK3, TMPRSS2, KLK2) and AR; test: RT-qPCR of AR and canonical targets of AR signaling in LNCaP cells; format: cell-based; conditions: 24 hours
Protocol: The RNeasy kit (Qiagen, Venlo, Netherlands) was used to extract RNA. cDNA was produced and reverse transcription quantitative polymerase chain reaction performed using the High Capacity cDNA Reverse Transcription kit and the SYBR Green Master mix from Thermo Fisher Scientific. Reverse transcription quantitative polymerase chain reaction was performed on a LightCycler 480 (Roche, Basel, Switzerland).

androgen receptor (AR) [2] = target: T1, androgen receptor (AR) (Homo sapiens, UniProt P10275, T878A); test: Cellular thermal shift assay (CETSA); format: binding
T1 construct: AR immunoprecipitated from LNCaP cells treated with either DMSO or phenprocoumon; host or cells: LNCaP
T1 sequence (P10275 whole entry T878A): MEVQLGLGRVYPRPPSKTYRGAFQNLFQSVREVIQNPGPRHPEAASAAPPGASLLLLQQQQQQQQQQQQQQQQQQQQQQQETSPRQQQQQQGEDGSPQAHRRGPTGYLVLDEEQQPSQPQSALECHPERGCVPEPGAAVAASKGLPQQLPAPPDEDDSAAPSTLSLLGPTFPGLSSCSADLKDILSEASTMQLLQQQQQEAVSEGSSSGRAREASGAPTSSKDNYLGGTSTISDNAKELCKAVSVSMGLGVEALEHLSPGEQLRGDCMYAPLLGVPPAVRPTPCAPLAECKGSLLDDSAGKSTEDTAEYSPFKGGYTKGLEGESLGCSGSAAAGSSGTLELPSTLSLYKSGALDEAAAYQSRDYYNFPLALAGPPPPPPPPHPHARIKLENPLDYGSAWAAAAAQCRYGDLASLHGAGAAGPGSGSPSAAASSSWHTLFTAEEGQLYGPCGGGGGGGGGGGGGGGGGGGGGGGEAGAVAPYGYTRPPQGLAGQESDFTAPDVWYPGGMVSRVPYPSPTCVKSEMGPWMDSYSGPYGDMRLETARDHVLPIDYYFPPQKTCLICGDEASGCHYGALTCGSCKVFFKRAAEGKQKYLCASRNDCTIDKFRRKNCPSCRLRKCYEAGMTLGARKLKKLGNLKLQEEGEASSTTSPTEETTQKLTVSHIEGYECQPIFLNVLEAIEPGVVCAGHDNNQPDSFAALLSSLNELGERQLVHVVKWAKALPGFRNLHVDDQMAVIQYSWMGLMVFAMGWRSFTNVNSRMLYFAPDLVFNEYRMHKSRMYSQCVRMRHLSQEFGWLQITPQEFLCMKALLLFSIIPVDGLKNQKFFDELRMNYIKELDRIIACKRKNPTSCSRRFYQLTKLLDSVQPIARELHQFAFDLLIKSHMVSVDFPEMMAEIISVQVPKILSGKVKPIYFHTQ
Protocol: LNCaP cells were treated with DMSO or 35 μM PPC for 2 days and then harvested maintaining a constant concentration of PPC in all subsequent handling buffers. Otherwise, lysates were directly treated with the drug as already described (Martinez Molina D et al., Science, 2013, 341:84-7).

androgen receptor (AR) [3] = test: 2D difference gel electrophoresis (DIGE) of immunoprecipitated AR; format: cell-based; conditions: AR immunoprecipitated from LNCaP cells, versus DMSO
Protocol: as §1
IP lysates eluted with glycine buffer were used for 2D difference gel electrophoresis (DIGE). […] Rehydration and isoelectric focusing on IPG strips (ReadyStrip IPG Strips, 11 cm, pH 3-10, non-linear (BioRad)) was followed by SDS-PAGE on gradient gels (Criterion, Any kD, BioRad) and detection with a Typhoon fluorescence scanner at the recommended excitation and emission wavelengths for G-Dye200 and G. Images were analyzed using Delta2D 4.3 software (Decodon, Greifswald, Germany).
The inventors then assessed whether phenprocoumon treatment could otherwise modify AR and analyzed the migration pattern of the protein by means of 2D gel electrophoresis (see FIG. 13H).

thermal stability of AR (androgen receptor (AR) [2]; LNCaP cell lysates treated with 100 μM PPC for 30 min, no pretreatment)	thermal stability of AR (androgen receptor (AR) [2]; LNCaP cells treated with 35 μM PPC for 2 days)	isoelectric point of AR (migration pattern) (androgen receptor (AR) [3])	SMILES	synergy in combination with phenprocoumon (LNCaP cells)	amount of AR immunoprecipitated with γ-carboxylation-specific antibody (γ-carboxylated AR)	effect on induction of AR signaling (KLK3, KLK2) by R1881 ([1]; 10 nM R1881 ± 35 μM PPC)	expression of AR signaling canonical targets KLK3, TMPRSS2 and KLK2 ([1]; steroid-deprived medium, 15 μM flutamide, 35 μM PPC)
			CNC(=O)c1ccc(N2C(=S)N(c3ccc(C#N)c(C(F)(F)F)c3)C(=O)C2(C)C)cc1F [enzalutamide]	synergistic interaction with phenprocoumon, albeit to a lower extent compared to flutamide			
			CC1(C)NC(=O)N(c2ccc([N+](=O)[O-])c(C(F)(F)F)c2)C1=O [nilutamide]	synergistic interaction with phenprocoumon, albeit to a lower extent compared to flutamide			
did not stabilize AR	affects the thermal stability of AR	migrated at a higher isoelectric point	CCC(c1ccccc1)c1c(O)c2ccccc2oc1=O (centres unmarked) [phenprocoumon]		reduced the amount of immunopreciptated protein in a dose-dependent manner	did not interfere with the induction of AR signaling	did not affect the expression of these genes
